Test results published in patent US4275071A, “Imidazole derivatives” (Recordati S.A., priority 1978, dated 1981).
Like-named read-outs stand apart in the source and are kept apart here.

Assays:
[1] = tested on: pentylenetetrazol (Metrazol) seizure in mice; assay: Subcutaneous pentylenetetrazol (Metrazol) seizure threshold test (MET) in the mouse; format: in vivo; details: 1 h, read-out: ED50 - MET
[2] = tested on: maximum electroshock seizure in mice; assay: Maximum electroshock seizure test (MES) in the mouse; format: in vivo, mouse (albino race); details: read-out: ED50 - MES
[3] = in vivo; details: mouse, in vivo
Description: (§1) As to MET, it is known that pentylene-tetrazol (metrazol) administered subcutaneously to mice in a loose fold of skin on the back of the neck, produces seizures. […] Failure to observe even a threshold seizure is defined as protection. In the same table the LD50 values (lethal dose 50), evaluated in the mouse both I.p. and per os, are given.

[4] = tested on: mouse; assay: in vivo; details: i.p.
Description: as §1

[5] = ip, mouse, i.p., pentylenetetrazol 130 mg/Kg s.c. 30 minutes after administration, observed 60 minutes
[6] = po, mouse, os, pentylenetetrazol 130 mg/Kg s.c. 60 minutes after administration, observed 60 minutes
[7] = ip, mouse, i.p., electroshock 60 Hz, 0.2 sec, 25 mA, 30 or 60 minutes after administration
[8] = po, mouse, os, electroshock 60 Hz, 0.2 sec, 25 mA, 30 or 60 minutes after administration

O=C1NC(=O)C(c2ccccc2)(c2ccccc2)N1 [Diphenylidantoin, diphenylidantoin, reference compound]
ED50 [1, 5]: 6 mg/kg
ED50 [1, 6]: 5 mg/kg
ED50 [2, 7]: 6 mg/kg
ED50 [2, 8]: 10 mg/kg

O=C(CCn1ccnc1)c1ccc(CCc2ccccc2)cc1 [Compound 1585]
ED50 ([1]; Mus musculus, ip): 25 mg/kg
ED50 ([1]; Mus musculus, po): 25 mg/kg
ED50 ([2]; Mus musculus, ip): 25 mg/kg
ED50 ([2]; Mus musculus, po): 100 mg/kg

CCC1(c2ccccc2)C(=O)NC(=O)NC1=O [Phenobarbital, phenobarbital, reference compound]
ED50 ([1]; Mus musculus, ip): 9 mg/kg
ED50 ([1]; Mus musculus, po): 10 mg/kg
ED50 ([2]; Mus musculus, ip): 14 mg/kg
ED50 ([2]; Mus musculus, po): 18 mg/kg
LD50 ([3]; ip): 242 mg/kg
LD50 ([3]; po): 245 mg/kg

OC(Cn1ccnc1)c1ccc(C2CCCCC2)cc1 (stereo not shown) [Compound 1534, 1-[1'-hydroxy-2'-(N-imidazolyl)-ethyl]-4-cyclohexyl-benzene]
ED50 [1, 5]: 25 mg/kg
ED50 [1, 6]: 27 mg/kg
ED50 [2, 7]: 50 mg/kg
ED50 [2, 8]: 60 mg/kg
LD50 ([3]; ip): 490 mg/kg
LD50 ([3]; po): 2700 mg/kg

Cc1c(C)c(C(=O)Cn2ccnc2)c(C)c(C)c1Br [Compound 1457, 3-(N-imidazolyl-acetyl)-6-bromo-durene]
ED50 ([1]; Mus musculus, ip): 90 mg/kg
ED50 ([1]; Mus musculus, po): 57 mg/kg
ED50 ([2]; Mus musculus, ip): 180 mg/kg
ED50 ([2]; Mus musculus, po): 190 mg/kg

Cc1cc(C)c(C)c(C(=O)Cn2ccnc2)c1C [Compound 1323, 3-(N-imidazolyl-acetyl)-durene]
ED50 ([1]; Mus musculus, ip): 19 mg/kg
ED50 ([1]; Mus musculus, po): 28 mg/kg
ED50 ([2]; Mus musculus, ip): 18 mg/kg
ED50 ([2]; Mus musculus, po): 33 mg/kg
LD50 ([3]; ip): 420 mg/kg
LD50 ([3]; po): 1.17 mg/kg

O=C(Cn1ccnc1)c1ccc(-c2ccccc2)cc1 [Compound 1341, 4-(N-imidazolyl-acetyl)-biphenyl]
ED50 ([1]; Mus musculus, ip): 28 mg/kg
ED50 ([1]; Mus musculus, po): 10 mg/kg
ED50 ([2]; Mus musculus, ip): 54 mg/kg
ED50 ([2]; Mus musculus, po): 76 mg/kg

O=C(Cn1ccnc1)c1ccc(CCc2ccccc2)cc1 [Compound 1532, 4-(N-imidazolyl-acetyl)-bibenzyl]
ED50 ([1]; Mus musculus, ip): 11 mg/kg
ED50 ([1]; Mus musculus, po): 17 mg/kg
ED50 ([2]; Mus musculus, ip): 11 mg/kg
ED50 ([2]; Mus musculus, po): 37 mg/kg
LD50 ([3]; po): 1.55 mg/kg
LD50 [4]: 300 mg/kg

CC(C)(C(O)c1ccc(-c2ccccc2)cc1)n1ccnc1 (stereo not shown) [Compound 1492]
ED50 [1, 5]: 10 mg/kg
ED50 [1, 6]: 14 mg/kg
ED50 [2, 7]: 24 mg/kg
ED50 [2, 8]: 27 mg/kg
LD50 ([3]; ip): 420 mg/kg
LD50 ([3]; po): 2400 mg/kg

CC(C(O)c1ccc(Sc2ccccc2)cc1)n1ccnc1 (stereo not shown) [Compound 1540]
ED50 ([1]; Mus musculus, ip): 39 mg/kg
ED50 ([1]; Mus musculus, po): 150 mg/kg
ED50 ([2]; Mus musculus, ip): 155 mg/kg
ED50 ([2]; Mus musculus, po): 150 mg/kg

CC(C)(C(O)c1ccc(Sc2ccccc2)cc1)n1ccnc1 (stereo not shown) [Compound 1541]
ED50 ([1]; Mus musculus, ip): 23 mg/kg
ED50 ([1]; Mus musculus, po): 135 mg/kg
ED50 ([2]; Mus musculus, ip): 50 mg/kg
ED50 ([2]; Mus musculus, po): 190 mg/kg

Cc1c(C)c(C(=O)Cn2ccnc2)c(C)c(C)c1Cl [Compound 1517, 3-(N-imidazolyl-acetyl)-6-chloro-durene]
ED50 ([1]; Mus musculus, ip): 150 mg/kg
ED50 ([1]; Mus musculus, po): 150 mg/kg
ED50 [2, 7]: 80 mg/kg
ED50 [2, 8]: 80 mg/kg
